Source: PMC7758046, “Novel piperazine–chalcone hybrids and related pyrazoline analogues targeting VEGFR-2 kinase; design, synthesis, molecular docking studies, and anticancer evaluation” (Journal of Enzyme Inhibition and Medicinal Chemistry, 2020)
pIC50: −log10 of the molar value.

Tests used:
HCT-116 (Colon cancer) = test: NCI-60 single-dose anticancer screen; assay type: cell-based, human; details: for cell growth promotion: 10 µM single dose; for inhibition at 10 µM: Homo sapiens, read-out: cell growth inhibition
Experimental: (§1) Six compounds were selected by the NCI, according to NCI’s DTP selection guidelines, for evaluation of their anticancer activity at a single-dose of 10 µM against 60 human tumours cell lines.
(§2) In vitro cytotoxicity was performed in NCI according to reported method.

HCC-2998 (Colon cancer) = test: NCI-60 single-dose anticancer screen; assay type: cell-based, human; details: 10 µM single dose
Experimental: as §1, §2

ACHN (Renal cancer) = test: NCI-60 single-dose anticancer screen; assay type: cell-based, human; details: 10 µM single dose
Experimental: as §1, §2

PC-3 (Prostate cancer) = test: NCI-60 single-dose anticancer screen; assay type: cell-based, human; details: 10 µM single dose
Experimental: as §1, §2

HL-60(TB) (Leukaemia) = test: NCI-60 single-dose anticancer screen; assay type: cell-based, human; details: 10 µM single dose
Experimental: as §1, §2

[1] = test system: NCI/ADR-RES (Ovarian cancer); test: NCI-60 single-dose anticancer screen; assay type: cell-based, human; details: 10 µM single dose
Experimental: as §1, §2

SW-620 (Colon cancer) = test: NCI-60 single-dose anticancer screen; assay type: cell-based, human; details: 10 µM single dose
Experimental: as §1, §2

MALME-3M (Melanoma) = test: NCI-60 single-dose anticancer screen; assay type: cell-based, human; details: 10 µM single dose
Experimental: as §1, §2

RPMI-8226 (Leukaemia) = test: NCI-60 single-dose anticancer screen; assay type: cell-based, human; details: 10 µM single dose
Experimental: as §1, §2

LOX IMVI (Melanoma) = test: NCI-60 single-dose anticancer screen; assay type: cell-based, human; details: 10 µM single dose
Experimental: as §1, §2

U251 (CNS cancer) = test: NCI-60 single-dose anticancer screen; assay type: cell-based, human; details: 10 µM single dose
Experimental: as §1, §2

A498 (Renal cancer) = test: NCI-60 single-dose anticancer screen; assay type: cell-based, human; details: 10 µM single dose
Experimental: as §1, §2

COLO 205 (Colon cancer) = test: NCI-60 single-dose anticancer screen; assay type: cell-based, human; details: 10 µM single dose
Experimental: as §1, §2

OVCAR-5 (Ovarian cancer) = test: NCI-60 single-dose anticancer screen; assay type: cell-based, human; details: 10 µM single dose
Experimental: as §1, §2

MDA-MB-435 (Melanoma) = test: NCI-60 single-dose anticancer screen; assay type: cell-based, human; details: 10 µM single dose
Experimental: as §1, §2

SK-MEL-2 (Melanoma) = test: NCI-60 single-dose anticancer screen; assay type: cell-based, human; details: 10 µM single dose
Experimental: as §1, §2

TK-10 (Renal cancer) = test: NCI-60 single-dose anticancer screen; assay type: cell-based, human; details: 10 µM single dose
Experimental: as §1, §2

RXF 393 (Renal cancer) = test: NCI-60 single-dose anticancer screen; assay type: cell-based, human; details: 10 µM single dose
Experimental: as §1, §2

M14 (Melanoma) = test: NCI-60 single-dose anticancer screen; assay type: cell-based, human; details: 10 µM single dose
Experimental: as §1, §2

MCF7 (Breast cancer) = test: NCI-60 single-dose anticancer screen; assay type: cell-based, human; details: 10 µM single dose
Experimental: as §1, §2

SNB-19 (CNS cancer) = test: NCI-60 single-dose anticancer screen; assay type: cell-based, human; details: 10 µM single dose
Experimental: as §1, §2

[2] = test system: HOP-92 (Non-small cell lung cancer); test: NCI-60 single-dose anticancer screen; assay type: cell-based, human; details: 10 µM single dose; for inhibition at 10 µM: Homo sapiens, read-out: cell growth inhibition
Experimental: as §1, §2

[3] = test system: EKVX (Non-small cell lung cancer); test: NCI-60 single-dose anticancer screen; assay type: cell-based, human; details: 10 µM single dose
Experimental: as §1, §2

[4] = test system: A549/ATCC (Non-small cell lung cancer); test: NCI-60 single-dose anticancer screen; assay type: cell-based, human; details: 10 µM single dose
Experimental: as §1, §2

KM12 (Colon cancer) = test: NCI-60 single-dose anticancer screen; assay type: cell-based, human; details: 10 µM single dose
Experimental: as §1, §2

[5] = test system: NCI-H460 (Non-small cell lung cancer); test: NCI-60 single-dose anticancer screen; assay type: cell-based, human; details: 10 µM single dose
Experimental: as §1, §2

UO-31 (Renal cancer) = test: NCI-60 single-dose anticancer screen; assay type: cell-based, human; details: 10 µM single dose
Experimental: as §1, §2

OVCAR-8 (Ovarian cancer) = test: NCI-60 single-dose anticancer screen; assay type: cell-based, human; details: 10 µM single dose
Experimental: as §1, §2

UACC-62 (Melanoma) = test: NCI-60 single-dose anticancer screen; assay type: cell-based, human; details: 10 µM single dose
Experimental: as §1, §2

SK-OV-3 (Ovarian cancer) = test: NCI-60 single-dose anticancer screen; assay type: cell-based, human; details: 10 µM single dose
Experimental: as §1, §2

OVCAR-4 (Ovarian cancer) = test: NCI-60 single-dose anticancer screen; assay type: cell-based, human; details: 10 µM single dose
Experimental: as §1, §2

T-47D (Breast cancer) = test: NCI-60 single-dose anticancer screen; assay type: cell-based, human; details: 10 µM single dose
Experimental: as §1, §2

[6] = test system: MDA-MB-231/ATCC (Breast cancer); test: NCI-60 single-dose anticancer screen; assay type: cell-based, human; details: 10 µM single dose
Experimental: as §1, §2

SK-MEL-28 (Melanoma) = test: NCI-60 single-dose anticancer screen; assay type: cell-based, human; details: 10 µM single dose
Experimental: as §1, §2

CCRF-CEM (Leukaemia) = test: NCI-60 single-dose anticancer screen; assay type: cell-based, human; details: 10 µM single dose
Experimental: as §1, §2

786-0 (Renal cancer) = test: NCI-60 single-dose anticancer screen; assay type: cell-based, human; details: 10 µM single dose
Experimental: as §1, §2

DU-145 (Prostate cancer) = test: NCI-60 single-dose anticancer screen; assay type: cell-based, human; details: 10 µM single dose
Experimental: as §1, §2

UACC-257 (Melanoma) = test: NCI-60 single-dose anticancer screen; assay type: cell-based, human; details: 10 µM single dose
Experimental: as §1, §2

BT-549 (Breast cancer) = test: NCI-60 single-dose anticancer screen; assay type: cell-based, human; details: 10 µM single dose
Experimental: as §1, §2

IGROV1 (Ovarian cancer) = test: NCI-60 single-dose anticancer screen; assay type: cell-based, human; details: 10 µM single dose
Experimental: as §1, §2

HCT-15 (Colon cancer) = test: NCI-60 single-dose anticancer screen; assay type: cell-based, human; details: 10 µM single dose
Experimental: as §1, §2

human VEGFR-2 = target: T1, human VEGFR-2 (Homo sapiens, UniProt P35968); test: In vitro VEGFR-2 inhibitory assay (colorimetric human VEGFR-2 ELISA, HTScan VEGF Receptor 2 Kinase Assay Kit); assay type: biochemical; details: VEGFR-2 inhibition
T1 construct: It includes active VEGFR-2 kinase; purchased HTScan VEGF Receptor 2 Kinase Assay Kit
Experimental: VEGFR is considered as an important target for the development of potential anti-cancer candidates.
On a 96-well plate, a particular VEGFR-2 antibody was seeded and 100 µL of the normal solution or compound tested was applied, incubated at room temperature for 2.5 h and washed.
Then, 100 µL of the prepared biotin antibody was added, incubated for an additional 1 h at room temperature and washed. Following, 100 µL of streptavidin solution was added at room temperature, incubated for 45 min and then, 100 µL of TMB substrate solution was applied and incubated at room temperature for 30 min. Finally, 50 µL stop solution was added and the absorption was measured at 450 nm instantly. The standard curve, the X-axis concentrations, and the Y-axis absorbance were drawn.

[7] = Homo sapiens, read-out: cell growth inhibition

T1 sequence (P35968 20-1356): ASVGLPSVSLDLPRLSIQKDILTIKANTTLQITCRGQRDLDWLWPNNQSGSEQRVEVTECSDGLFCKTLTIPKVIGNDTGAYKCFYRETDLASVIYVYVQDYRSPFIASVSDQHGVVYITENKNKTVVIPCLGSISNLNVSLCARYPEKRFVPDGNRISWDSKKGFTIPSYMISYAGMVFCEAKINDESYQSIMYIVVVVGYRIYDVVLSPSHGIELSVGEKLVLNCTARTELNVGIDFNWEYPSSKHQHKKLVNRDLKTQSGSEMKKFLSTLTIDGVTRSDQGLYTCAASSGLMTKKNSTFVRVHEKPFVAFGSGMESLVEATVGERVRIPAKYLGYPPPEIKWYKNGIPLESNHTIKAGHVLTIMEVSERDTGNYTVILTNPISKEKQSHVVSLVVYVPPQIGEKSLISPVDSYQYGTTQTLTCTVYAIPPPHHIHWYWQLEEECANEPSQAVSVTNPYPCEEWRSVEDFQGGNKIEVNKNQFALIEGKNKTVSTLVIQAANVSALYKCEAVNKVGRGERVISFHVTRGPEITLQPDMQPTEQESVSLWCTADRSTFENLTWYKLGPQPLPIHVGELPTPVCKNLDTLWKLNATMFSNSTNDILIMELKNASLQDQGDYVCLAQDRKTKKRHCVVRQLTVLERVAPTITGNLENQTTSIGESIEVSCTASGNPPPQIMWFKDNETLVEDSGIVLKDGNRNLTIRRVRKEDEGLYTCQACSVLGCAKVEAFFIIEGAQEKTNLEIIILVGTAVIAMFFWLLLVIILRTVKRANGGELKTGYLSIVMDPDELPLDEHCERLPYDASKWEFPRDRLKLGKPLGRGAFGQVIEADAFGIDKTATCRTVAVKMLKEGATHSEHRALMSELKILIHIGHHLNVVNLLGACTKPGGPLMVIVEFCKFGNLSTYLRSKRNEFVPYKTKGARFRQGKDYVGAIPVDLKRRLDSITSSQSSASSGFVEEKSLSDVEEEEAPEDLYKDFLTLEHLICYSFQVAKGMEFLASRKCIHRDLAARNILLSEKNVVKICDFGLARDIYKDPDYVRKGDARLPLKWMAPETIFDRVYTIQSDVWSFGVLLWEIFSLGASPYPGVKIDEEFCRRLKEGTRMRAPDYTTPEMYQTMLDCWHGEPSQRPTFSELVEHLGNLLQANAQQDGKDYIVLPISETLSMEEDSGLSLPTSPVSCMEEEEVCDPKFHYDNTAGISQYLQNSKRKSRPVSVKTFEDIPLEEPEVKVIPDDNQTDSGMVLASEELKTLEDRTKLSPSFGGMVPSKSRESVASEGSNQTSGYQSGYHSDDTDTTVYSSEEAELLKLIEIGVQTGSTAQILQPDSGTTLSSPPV

Work on COc1cc(C2CC(c3ccc(N4CCNCC4)cc3)=NN2)ccc1F (stereo not drawn) [VIb, 1-(4-(5-(4-Fluoro-3-methoxyphenyl)-4,5-dihydro-1H-pyrazol-3-yl)phenyl) piperazine] yielded a cell growth promotion (HCT-116 (Colon cancer)) of 61.10%, an inhibition at 10 µM (HCT-116 (Colon cancer)) of 38.9% and a cell growth promotion (HCC-2998 (Colon cancer)) of 104.57%. For the same molecule, the cell growth promotion (ACHN (Renal cancer)) was 101.47%, the cell growth promotion (PC-3 (Prostate cancer)) was 64.23% and the cell growth promotion (HL-60(TB) (Leukaemia)) was 76.95%. The cell growth promotion [1] was 104.69%, the cell growth promotion (SW-620 (Colon cancer)) was 91.67% and the cell growth promotion (MALME-3M (Melanoma)) was 102.13%. For the same molecule, the cell growth promotion (RPMI-8226 (Leukaemia)) was 72.01%, the cell growth promotion (LOX IMVI (Melanoma)) was 79.56% and the cell growth promotion (U251 (CNS cancer)) was 78.59%. For the same molecule, the cell growth promotion (A498 (Renal cancer)) was 90.59%, the cell growth promotion (COLO 205 (Colon cancer)) was 93.87% and the cell growth promotion (OVCAR-5 (Ovarian cancer)) was 101.51%. It also gave a cell growth promotion (MDA-MB-435 (Melanoma)) of 101.87%, a cell growth promotion (SK-MEL-2 (Melanoma)) of 87.70% and a cell growth promotion (TK-10 (Renal cancer)) of 113.60%. It also gave a cell growth promotion (RXF 393 (Renal cancer)) of 95.32%, a cell growth promotion (M14 (Melanoma)) of 84.68% and a cell growth promotion (MCF7 (Breast cancer)) of 68.65%. It also gave a cell growth promotion (SNB-19 (CNS cancer)) of 95.65%, a cell growth promotion [2] of 57.13% and an inhibition at 10 µM [2] of 42.9%. It also gave a cell growth promotion [3] of 95.41%, a cell growth promotion [4] of 68.21% and a cell growth promotion (KM12 (Colon cancer)) of 93.81%. It also gave a cell growth promotion [5] of 95.16%, a cell growth promotion (UO-31 (Renal cancer)) of 76.56% and a cell growth promotion (OVCAR-8 (Ovarian cancer)) of 84.09%. The cell growth promotion (UACC-62 (Melanoma)) was 86.00%, the cell growth promotion (SK-OV-3 (Ovarian cancer)) was 83.58% and the cell growth promotion (OVCAR-4 (Ovarian cancer)) was 91.49%. It also gave a cell growth promotion (T-47D (Breast cancer)) of 73.62%, a cell growth promotion [6] of 81.98% and a cell growth promotion (SK-MEL-28 (Melanoma)) of 109.51%. It also gave a cell growth promotion (CCRF-CEM (Leukaemia)) of 69.44%, a cell growth promotion (786-0 (Renal cancer)) of 94.50% and a cell growth promotion (DU-145 (Prostate cancer)) of 103.62%. For the same molecule, the cell growth promotion (UACC-257 (Melanoma)) was 80.93%, the cell growth promotion (BT-549 (Breast cancer)) was 70.80% and the cell growth promotion (IGROV1 (Ovarian cancer)) was 82.04%. For the same molecule, the cell growth promotion (HCT-15 (Colon cancer)) was 85.57% and the pIC50 (human VEGFR-2) was 5.97.

N#Cc1ccccc1C1CC(c2ccc(N3CCNCC3)cc2)=NN1 (stereo not drawn) [VIa, 2-(3-(4-(Piperazin-1-yl)phenyl)-4,5-dihydro-1H-pyrazol-5-yl)benzonitrile] showed a cell growth promotion (HCT-116 (Colon cancer)) of 85.83%, an inhibition at 10 µM (HCT-116 (Colon cancer)) of 14.2% and a cell growth promotion (HCC-2998 (Colon cancer)) of 96.75%. For the same molecule, the cell growth promotion (ACHN (Renal cancer)) was 104.24%, the cell growth promotion (PC-3 (Prostate cancer)) was 83.35% and the cell growth promotion (HL-60(TB) (Leukaemia)) was 81.63%. The cell growth promotion [1] was 102.72%, the cell growth promotion (SW-620 (Colon cancer)) was 94.11% and the cell growth promotion (MALME-3M (Melanoma)) was 106.87%. The cell growth promotion (RPMI-8226 (Leukaemia)) was 88.98%, the cell growth promotion (LOX IMVI (Melanoma)) was 99.03% and the cell growth promotion (U251 (CNS cancer)) was 94.54%. It also gave a cell growth promotion (A498 (Renal cancer)) of 93.08%, a cell growth promotion (COLO 205 (Colon cancer)) of 113.04% and a cell growth promotion (OVCAR-5 (Ovarian cancer)) of 113.63%. For the same molecule, the cell growth promotion (MDA-MB-435 (Melanoma)) was 102.57%, the cell growth promotion (SK-MEL-2 (Melanoma)) was 94.51% and the cell growth promotion (TK-10 (Renal cancer)) was 130.17%. The cell growth promotion (RXF 393 (Renal cancer)) was 108.30%, the cell growth promotion (M14 (Melanoma)) was 104.47% and the cell growth promotion (MCF7 (Breast cancer)) was 93.05%. For the same molecule, the cell growth promotion (SNB-19 (CNS cancer)) was 95.34%, the cell growth promotion [2] was 83.18% and the inhibition at 10 µM [2] was 16.8%. The cell growth promotion [3] was 101.50%, the cell growth promotion [4] was 78.06% and the inhibition at 10 µM [4, 7] was 21.9%. The cell growth promotion (KM12 (Colon cancer)) was 97.48%, the cell growth promotion [5] was 101.50% and the cell growth promotion (UO-31 (Renal cancer)) was 86.28%. For the same molecule, the cell growth promotion (OVCAR-8 (Ovarian cancer)) was 90.36%, the cell growth promotion (UACC-62 (Melanoma)) was 88.47% and the cell growth promotion (SK-OV-3 (Ovarian cancer)) was 96.47%. It also gave a cell growth promotion (OVCAR-4 (Ovarian cancer)) of 101.39%, a cell growth promotion (T-47D (Breast cancer)) of 89.99% and a cell growth promotion [6] of 95.96%. It also gave a cell growth promotion (SK-MEL-28 (Melanoma)) of 114.17%, a cell growth promotion (CCRF-CEM (Leukaemia)) of 71.21% and an inhibition at 10 µM (CCRF-CEM (Leukaemia); [7]) of 28.8%. The cell growth promotion (786-0 (Renal cancer)) was 106.73%, the cell growth promotion (DU-145 (Prostate cancer)) was 104.00% and the cell growth promotion (UACC-257 (Melanoma)) was 85.21%. For the same molecule, the cell growth promotion (BT-549 (Breast cancer)) was 96.87%, the cell growth promotion (IGROV1 (Ovarian cancer)) was 93.22% and the cell growth promotion (HCT-15 (Colon cancer)) was 112.02%. The pIC50 (human VEGFR-2) was 5.83.
